Laboratory results published in US9422321B2, “Pyrimidine nucleoside derivatives, synthesis methods and uses thereof for preparing anti-tumor and anti-virus medicaments” (High & New Technology Research Center, Henan Academy of …, priority 2010, dated 2016).
“And” between values parts separate entries of the source, which are not always exact repeats. Equal values may be shown once.

Assays:
[1] = tested on: VSVG/HIV-luc (NL4-3); assay: microbe, parasite or virus in culture; format: cell-based, HIV-1; details: Human immunodeficiency virus 1, NL43, HEK-293T; for EC50: 48 h, read-out: EC50 (μM) VSVG/HIV-luc (NL4-3)
[2] = tested on: HBeAg; assay: In vitro inhibition of HBV: HBeAg in HepG2.2.15 cells by ELISA; format: cell-based; details: Hepatitis B virus, HepG2.2.15, read-out: IC50 (μM) (HBeAg)
Procedure: (§1) A tube of frozen HepG2.2.15 cells taken from a liquid nitrogen tank was quickly placed into a water bath at 42° C. and shaken to thaw. DMEM complete medium (fetal bovine serum 10%, G418 380 μg/mL, Penicillin 100 U/ml, Streptomycin 100 U/ml) was used for cell culturing at conditions of 37° C. and 5% CO2. The number of cell passage in normal growing cells was once per 2-3 days.
(§2) The effect of a compound on HBV surface antigen s and antigen e in the cell culture was detected using a screening concentration lower than the half toxic concentration of the compound. HepG2.2.15 cells in logarithmic growth phase were selected and digested with trypsin into single cell suspension, and were seeded to a 24-well plate at a concentration of 2×10^4/mL, 1 mL per well. Media of different medicament concentrations were added, three wells for each concentration, and cells added with complete medium were set as normal control. Cell supernatants and cells at day 3, day 6 and day 9 were collected and kept under −20° C. The intracellular and extracellular expressions of e antigen and surface antigen at day 3, day 6 and day 9 were determined by ELISA.
(§3) 2.4 Effect of the Compound on HBeAg and HBsAg in HepG2.2.15 Cell Supernatant Detected by ELISA
(§4) The instructions of the kit were followed;
(§5) Measurement: OD value of each well was read from microplate reader using dual wavelength 450/630 nm.
(§6) Result determination: The Cutoff value was first calculated according to equation: COV=average OD of negative control×2.1. Then, if a sample had OD≧COV, the result was determined as positive, or if a sample had OD≦COV, the result was determined as negative.

[3] = tested on: HBsAg; assay: In vitro inhibition of HBV: HBsAg in HepG2.2.15 cells by ELISA; format: cell-based; details: Hepatitis B virus, HepG2.2.15, read-out: IC50 (μM) (HBsAg)
Procedure: as §1, §2, §3, §4, §5, §6

[4] = MTS test of effects of the compound on cell survival; format: cell-based; details: human, 293T cells
Procedure: Then, 20 μL freshly prepared mixture of MTS/PMS was added to each well and after 4 h incubation in the incubator at 37° C. with 5% CO2, the color was developed. The light absorption (OD) of each well at wavelengths 490 nm and 650 nm (background) was detected on an enzyme linked immuno analyzer, and the survival rate of cells was calculated.

[5] = MTT test of cytotoxicity on HepG2.2.15 cells; format: cell-based; details: human, read-out: CC50 (μM) (HepG2. 2. 15)
Procedure: as §1
Cytotoxicity of the compound on HepG2.2.15 cells was tested with the MTT colorimetric assay established by Mosmann. After continuous incubation for 72 h, 10 μL MTT was added to each well. Four hours later, the supernatant was discarded and 200 μL DMSO was added to each well. The OD value in each well was read using a microplate reader (measurement wavelength 490 nm, reference wavelength 630 nm). The result was recorded and the percentage inhibition of HepG2.2.15 cells by each compound was calculated:
The half toxic concentration (TC50) of the medicament on cells was calculated according to the percentage inhibition of the cell by the medicament.

[6] = tested on: human lymphoma Raji cells; assay: Inhibition of cell growth by MTT reduction; format: cell-based; details: read-out: Inhibitory activity, IC50
Procedure: Cell culturing: Raji cells in RPMI1640 culture solution containing 10% fetal calf serum were incubated in an incubator at 37° C. with 5% CO2 for 2-3 days. Cells in logarithmic growth phase were used for the experiment.
Cells in logarithmic growth phase were taken and after the cell density was adjusted to 5×10^4 cells/mL, they were seeded to three 96-well plates separately, 100 μL per well. The culture solution was replaced after 24 h cell culturing. […] The blank group (for zeroing) was only added with RPMI1640 culture solution containing 10% fetal calf serum and no cell was added. The control group was added with an equal volume of RPMI1640 culture solution containing 10% fetal calf serum. Each group had 5 replicates. After cells were incubated for 24 h, 48 h and 72 h separately, 20 μL MTT solution (5 mg/mL) was added to each well followed by a 4 h incubation. The supernatant was removed by sucking it out and discarded. 150 μL DMSO was added per well, vortexed about 5 min to mix evenly. After the crystal was completely dissolved, the absorption (A) value at 570 nm of each well was tested within 20 min on enzyme-linked immuno analyzer. The experiment was repeated 3 times and the average was taken to calculate the inhibition rate of cell growth by the following equation. Inhibition rate of cell growth=(1−average A value of experimental group/average A value of control group)×100%

[7] = tested on: HCV-RNA; assay: In vitro anti-HCV activity, quantitative determination of HCV-RNA; format: cell-based, hepatitis C virus (HCV); details: for levels of HCV-RNA: control 0 μg/mL: Exp 1 5.3 × 10^2, Exp 2 4.0 × 10^2
Procedure: HCV replication cells (Avva.5) were cultivated in Dulbecco's modified Eagle medium containing 10% fetal calf serum and 1 mg/mL G418. 293-Sip-L cells were cultivated in Dulbecco's modified Eagle medium containing 10% fetal calf serum, 250 μg/mL G418 and 150 μg/mL hygromycin B.
Cells in a Φ60 mm Petri dish were incubated in positive medium containing 100 μL HCV for 12 h, then in fresh medium free of HCV that was replaced every day. When being tested for HCV-RNA seven days after the infection, cells were trypsinized and washed with Dulbecco's modified Eagle medium twice through a centrifugation method. The upper layer from the second wash (as a control) and the washed cells were collected in pairs and used for RNA extraction and RT-PCR test. The β-actin mRNA was determined simultaneously as a control.
The quantitative determination of HCV-RNA was performed using automatic PCR enzyme-linked immunoassay (version 2.0, Roche Diagnostics, Branchburg, N.J.).
The levels of HCV-RNA were determined using automatic PCR enzyme-linked immunoassay.

Row | SMILES | EC50 [1] [µM] | inhibition at 10 µM ([1]; read-out: Inhibitory activity at 10 μM) [%] | IC50 [2] [µM] | IC50 [3] [µM] | CC50 at 44 h [4] [µM] | CC50 at 72 h [5] [µM] | IC50 [6] [µM] | levels of HCV-RNA ([7]; 0.06 μg/mL in the culture) | levels of HCV-RNA ([7]; 0.6 μg/mL in the culture) | levels of HCV-RNA ([7]; 6 μg/mL in the culture) | inhibitory effect on HCV ([7]; concentrations 6, 0.6 and 0.06 μg/mL)
1 | COC(=O)[C@@H](Cc1cc2ccccc2[nH]1)Nc1ccn([C@@H]2O[C@@](CO)(N=[N+]=[N-])C(O)C2F)c(=O)n1 (some centres unmarked) [Compound 7c] | 0.5 | 38.8 ± 3.3 | 0.32 | 0.2 | ≥ 25 | ≥ 280 |  |  |  |  | 
2 | [N-]=[N+]=N[C@]1(CO)O[C@@H](n2ccc(NCCN)nc2=O)C(F)C1O (some centres unmarked) [Compound 5-02] | 0.093 ± 0.067 |  |  | 8.05 | ≥ 25 | ≥ 25 | 45 | 4.5 × 10^2 and 4.2 × 10^2 | 0.90 × 10^2 and 0.70 × 10^2 | 1.0 × 10^2 and 0.80 × 10^2 | exhibited inhibitory effect
3 | [N-]=[N+]=N[C@]1(CO)O[C@@H](n2ccc(N(CCO)CCO)nc2=O)C(F)C1O (some centres unmarked) [Compound 5-19] | 0.8 ± 0.7 |  |  | 0.009 | ≥ 25 | > 1250 | 1.6 |  |  |  | 
4 | COC(=O)CC[C@H](Nc1ccn([C@@H]2O[C@@](CO)(N=[N+]=[N-])C(O)C2F)c(=O)n1)C(=O)OC (some centres unmarked) [Compound 7b] | 0.7 ± 0.1 |  | 6.16 | 0.02 | ≥ 25 | > 1250 | 28 |  |  |  | 
5 | CNc1ccn([C@@H]2O[C@@](CO)(N=[N+]=[N-])C(O)C2F)c(=O)n1 (some centres unmarked) [Compound 5-28] | 6.7 ± 4.7 |  | 14.3 | 6.26 | ≥ 25 | > 250 |  |  |  |  | 
6 | COC(=O)C[C@H](Nc1ccn([C@@H]2O[C@@](CO)(N=[N+]=[N-])C(O)C2F)c(=O)n1)C(=O)OC (some centres unmarked) [Compound 8e] | 12 ± 2.8 |  | 12.8 | 20.5 | ≥ 25 | 231 |  |  |  |  | 
7 | COC(=O)C(C)Nc1ccn([C@@H]2O[C@@](CO)(N=[N+]=[N-])C(O)C2F)c(=O)n1 (some centres unmarked) [Compound 7m] | 10 ± 6.6 |  | 21.2 | 1.89 | ≥ 25 | 311 |  |  |  |  | 
8 | [N-]=[N+]=N[C@]1(CO)O[C@@H](n2ccc(N[C@@H](Cc3cc4ccccc4[nH]3)C(=O)O)nc2=O)C(F)C1O (some centres unmarked) [Compound 8d] | 0.7 ± 0.1 |  | 0.36 | 0.03 | ≥ 25 | ≥ 25 |  |  |  |  | 
9 | [N-]=[N+]=N[C@]1(CO)O[C@@H](n2ccc(NCC(=O)O)nc2=O)C(F)C1O (some centres unmarked) [Compound 8a] | 5.1 ± 1.1 |  | 16.7 | 13.8 | ≥ 25 | > 250 |  |  |  |  | 
10 | [N-]=[N+]=N[C@]1(CO)O[C@@H](n2ccc(NO)nc2=O)C(F)C1O (some centres unmarked) [Compound 5-17] | 0.7 ± 0.2 |  | 0.11 | 0.07 | ≥ 25 | 951 |  |  |  |  | 
